target: human NaV 1.8 (Homo sapiens, UniProt Q9Y5Y9); experiment: E-VIPR assay detecting and measuring NaV inhibition properties; type: cell-based; settings: HEK cells expressing truncated human NaV 1.8; no human serum; read-out: IC50 in the E-VIPR Assay
How it was run: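 Membrane potential was followed by coumarin/oxonol FRET during electrical field stimulation of matrigel-seeded HEK cells carrying truncated human NaV1.8 plus KIR2.1. Dosing used 11 points, 3-fold steps, top 300 nM final, 0.625% DMSO, with or without 25% human serum.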

Chain of human NaV 1.8 (Q9Y5Y9 126-399 limits assumed): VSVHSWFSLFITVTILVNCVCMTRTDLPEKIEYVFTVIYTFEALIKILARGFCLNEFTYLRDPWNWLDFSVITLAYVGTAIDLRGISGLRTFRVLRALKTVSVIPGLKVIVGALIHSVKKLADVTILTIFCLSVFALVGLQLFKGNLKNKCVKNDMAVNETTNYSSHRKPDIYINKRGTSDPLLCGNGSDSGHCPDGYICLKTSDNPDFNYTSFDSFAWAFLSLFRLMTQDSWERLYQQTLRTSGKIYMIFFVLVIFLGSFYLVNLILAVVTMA
Chain of human NaV 1.8 (Q9Y5Y9 660-890 limits assumed): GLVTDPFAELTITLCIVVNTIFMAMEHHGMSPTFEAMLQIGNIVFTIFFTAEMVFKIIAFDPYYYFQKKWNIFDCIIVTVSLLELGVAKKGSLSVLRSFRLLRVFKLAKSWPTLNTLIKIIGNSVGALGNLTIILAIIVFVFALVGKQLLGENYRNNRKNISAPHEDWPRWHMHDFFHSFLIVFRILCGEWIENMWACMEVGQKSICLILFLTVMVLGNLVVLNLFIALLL
Chain of human NaV 1.8 (Q9Y5Y9 1148-1722 limits assumed): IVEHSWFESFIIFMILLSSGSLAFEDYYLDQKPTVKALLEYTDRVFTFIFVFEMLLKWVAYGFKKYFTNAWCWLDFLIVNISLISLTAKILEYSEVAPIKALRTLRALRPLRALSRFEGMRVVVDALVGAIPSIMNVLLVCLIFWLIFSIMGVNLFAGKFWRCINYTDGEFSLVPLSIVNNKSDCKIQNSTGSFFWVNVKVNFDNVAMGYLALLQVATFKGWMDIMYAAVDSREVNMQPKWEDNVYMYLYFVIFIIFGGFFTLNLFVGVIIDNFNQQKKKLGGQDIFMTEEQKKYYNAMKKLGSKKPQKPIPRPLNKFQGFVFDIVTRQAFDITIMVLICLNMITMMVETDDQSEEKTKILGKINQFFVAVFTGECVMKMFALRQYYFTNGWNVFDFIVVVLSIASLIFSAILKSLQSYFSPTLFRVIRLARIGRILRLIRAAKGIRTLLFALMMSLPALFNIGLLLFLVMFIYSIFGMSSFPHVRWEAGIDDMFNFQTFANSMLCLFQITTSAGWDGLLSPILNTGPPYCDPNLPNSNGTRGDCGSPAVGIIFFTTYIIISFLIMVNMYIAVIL

Which IC50 does the source give for `C[C@@H]1CN(C)CC(=O)N1c1cc(NC(=O)[C@@H]2O[C@@](C)(C(F)(F)F)[C@@H](C)[C@H]2c2ccc(F)c(F)c2OC(F)F)ccn1` [Compound 517, (2R,3S,4S,5R)-3-[2-(difluoromethoxy)-3,4-difluoro-phenyl]-N-[2-[(2R)-2,4-dimethyl-6-oxo-piperazin-1-yl]-4-pyridyl]-4,5-dimethyl-5-(trifluoromethyl)tetrahydrofuran-2-carboxamide] here?
Its IC50 is under 10 nM.

For `[2H]C([2H])([2H])Oc1c([C@H]2[C@H](C(=O)Nc3ccnc(N4CCN(C)CC4=O)c3)O[C@@](C)(C(F)(F)F)[C@H]2C)ccc(F)c1F` [Compound 518, (2R,3S,4S,5R)-3-(3,4-difluoro-2-(methoxy-d3)phenyl)-4,5-dimethyl-N-(2-(4-methyl-2-oxopiperazin-1-yl)pyridin-4-yl)-5-(trifluoromethyl)tetrahydrofuran-2-carboxamide], which IC50 is on record?
Its IC50 is under 10 nM.

Which IC50 does the source give for `[2H]C([2H])([2H])Oc1c([C@H]2[C@H](C(=O)Nc3ccnc(N4C(=O)CN(C)C[C@H]4C)c3)O[C@@](C)(C(F)(F)F)[C@H]2C)ccc(F)c1F` [Compound 519, (2R,3S,4S,5R)-3-[3,4-difluoro-2-(trideuteriomethoxy)phenyl]-N-[2-[(2R)-2,4-dimethyl-6-oxo-piperazin-1-yl]-4-pyridyl]-4,5-dimethyl-5-(trifluoromethyl)tetrahydrofuran-2-carboxamide] here?
The IC50 was under 10 nM.

How did the IC50 turn out when `COc1c([C@H]2[C@H](C(=O)Nc3ccnc(N4CCC[C@@H]4CO)c3)O[C@@](C)(C(F)(F)F)[C@H]2C)ccc(F)c1F` [Compound 520, (2R,3S,4S,5R)-3-(3,4-difluoro-2-methoxy-phenyl)-N-[2-[(2R)-2-(hydroxymethyl)pyrrolidin-1-yl]-4-pyridyl]-4,5-dimethyl-5-(trifluoromethyl)tetrahydrofuran-2-carboxamide] was run?
Its IC50 is 10 to 100 nM.

`COc1c([C@H]2[C@H](C(=O)Nc3ccnc(N(C)CCO)c3)O[C@@](C)(C(F)(F)F)[C@H]2C)ccc(F)c1F` [Compound 521, (2R,3S,4S,5R)-3-(3,4-difluoro-2-methoxy-phenyl)-N-[2-[2-hydroxyethyl(methyl)amino]-4-pyridyl]-4,5-dimethyl-5-(trifluoromethyl)tetrahydrofuran-2-carboxamide] was tested. Which IC50 did it give?
The IC50 was 10 to 100 nM.

For `COc1c([C@H]2[C@H](C(=O)Nc3ccnc(N(C)C(=O)CN(C)C)c3)O[C@@](C)(C(F)(F)F)[C@H]2C)ccc(F)c1F` [Compound 522, (2R,3S,4S,5R)-3-(3,4-difluoro-2-methoxy-phenyl)-N-[2-[[2-(dimethylamino)acetyl]-methyl-amino]-4-pyridyl]-4,5-dimethyl-5-(trifluoromethyl)tetrahydrofuran-2-carboxamide], which IC50 is on record?
The IC50 was under 10 nM.

`COc1c([C@H]2[C@H](C(=O)Nc3ccc(N)nc3)O[C@@](C)(C(F)(F)F)[C@H]2C)ccc(F)c1F` [Compound 523, (2R,3S,4S,5R)—N-(6-aminopyridin-3-yl)-3-(3,4-difluoro-2-methoxyphenyl)-4,5-dimethyl-5-(trifluoromethyl)tetrahydrofuran-2-carboxamide] was tested. Which IC50 did it give?
Its IC50 is under 10 nM.

How did the IC50 turn out when `CNc1ccc(NC(=O)[C@@H]2O[C@@](C)(C(F)(F)F)[C@@H](C)[C@H]2c2ccc(F)c(F)c2OC)cn1` [Compound 524, (2R,3S,4S,5R)-3-(3,4-difluoro-2-methoxy-phenyl)-4,5-dimethyl-N-[6-(methylamino)-3-pyridyl]-5-(trifluoromethyl)tetrahydrofuran-2-carboxamide] was run?
The IC50 was 10 to 100 nM.

For `COc1c([C@H]2[C@H](C(=O)Nc3ccc(NC(C)=O)nc3)O[C@@](C)(C(F)(F)F)[C@H]2C)ccc(F)c1F` [Compound 525, (2R,3S,4S,5R)-N-(6-acetamido-3-pyridyl)-3-(3,4-difluoro-2-methoxy-phenyl)-4,5-dimethyl-5-(trifluoromethyl)tetrahydrofuran-2-carboxamide], which IC50 is on record?
The IC50 was 10 to 100 nM.

For `COc1c([C@H]2[C@H](C(=O)Nc3ccc(NS(C)(=O)=O)nc3)O[C@@](C)(C(F)(F)F)[C@H]2C)ccc(F)c1F` [Compound 526, (2R,3S,4S,5R)-3-(3,4-difluoro-2-methoxy-phenyl)-N-[6-(methanesulfonamido)-3-pyridyl]-4,5-dimethyl-5-(trifluoromethyl)tetrahydrofuran-2-carboxamide], which IC50 is on record?
Its IC50 is 10 to 100 nM.

With `COc1c([C@H]2[C@H](C(=O)Nc3cncc(N4C(=O)CN(C)C[C@H]4C)c3)O[C@@](C)(C(F)(F)F)[C@H]2C)ccc(F)c1F` [Compound 535, (2R,3S,4S,5R)-3-(3,4-difluoro-2-methoxyphenyl)-N-(5-((R)-2,4-dimethyl-6-oxopiperazin-1-yl)pyridin-3-yl)-4,5-dimethyl-5-(trifluoromethyl)tetrahydrofuran-2-carboxamide] as the molecule, how does the IC50 read?
Its IC50 is 10 to 100 nM.

`Cc1nn(C(F)F)cc1NC(=O)[C@@H]1O[C@@](C)(C(F)(F)F)[C@@H](C)[C@H]1c1ccc(F)c(F)c1OCCO` [Compound 536, (2R,3S,4S,5R)-3-(3,4-difluoro-2-(2-hydroxyethoxy)phenyl)-N-(1-(difluoromethyl)-3-methyl-1H-pyrazol-4-yl)-4,5-dimethyl-5-(trifluoromethyl)tetrahydrofuran-2-carboxamide] was tested. Which IC50 did it give?
Its IC50 is under 10 nM.

How did the IC50 turn out when `C[C@H]1[C@@H](c2ccc(F)c(F)c2OCCO)[C@H](C(=O)Nc2ccnc(CO)c2)O[C@@]1(C)C(F)(F)F` [Compound 537, (2R,3S,4S,5R)-3-(3,4-difluoro-2-(2-hydroxyethoxy)phenyl)-N-(2-(hydroxymethyl)pyridin-4-yl)-4,5-dimethyl-5-(trifluoromethyl)tetrahydrofuran-2-carboxamide] was run?
The IC50 was under 10 nM.

How did the IC50 turn out when `Cc1nn(S(C)(=O)=O)cc1NC(=O)[C@@H]1O[C@@](C)(C(F)(F)F)[C@@H](C)[C@H]1c1ccc(F)c(F)c1OCCO` [Compound 538, (2R,3S,4S,5R)-3-(3,4-difluoro-2-(2-hydroxyethoxy)phenyl)-4,5-dimethyl-N-(3-methyl-1-(methylsulfonyl)-1H-pyrazol-4-yl)-5-(trifluoromethyl)tetrahydrofuran-2-carboxamide] was run?
The IC50 was under 10 nM.

`C[C@H]1[C@@H](c2ccc(F)c(F)c2OCCO)[C@H](C(=O)Nc2cncnc2)O[C@@]1(C)C(F)(F)F` [Compound 539, (2R,3S,4S,5R)-3-(3,4-difluoro-2-(2-hydroxyethoxy)phenyl)-4,5-dimethyl-N-(pyrimidin-5-yl)-5-(trifluoromethyl)tetrahydrofuran-2-carboxamide] was tested. Which IC50 did it give?
The IC50 was 10 to 100 nM.

Which IC50 does the source give for `C[C@H]1[C@@H](c2ccc(F)c(F)c2OCCO)[C@H](C(=O)Nc2ccnc(C(C)(C)O)c2)O[C@@]1(C)C(F)(F)F` [Compound 540, (2R,3S,4S,5R)-3-(3,4-difluoro-2-(2-hydroxyethoxy)phenyl)-N-(2-(2-hydroxypropan-2-yl)pyridin-4-yl)-4,5-dimethyl-5-(trifluoromethyl)tetrahydrofuran-2-carboxamide] here?
Its IC50 is under 10 nM.

Which IC50 does the source give for `C[C@H]1[C@@H](c2ccc(F)c(F)c2OCCO)[C@H](C(=O)Nc2ccn(C)c(=O)c2)O[C@@]1(C)C(F)(F)F` [Compound 541, (2R,3S,4S,5R)-3-(3,4-difluoro-2-(2-hydroxyethoxy)phenyl)-4,5-dimethyl-N-(1-methyl-2-oxo-1,2-dihydropyridin-4-yl)-5-(trifluoromethyl)tetrahydrofuran-2-carboxamide] here?
Its IC50 is 10 to 100 nM.

How did the IC50 turn out when `C[C@H]1[C@@H](c2ccc(F)c(F)c2OCCO)[C@H](C(=O)Nc2cnc(N3CCOCC3)nc2)O[C@@]1(C)C(F)(F)F` [Compound 542, (2R,3S,4S,5R)-3-(3,4-difluoro-2-(2-hydroxyethoxy)phenyl)-4,5-dimethyl-N-(2-morpholinopyrimidin-5-yl)-5-(trifluoromethyl)tetrahydrofuran-2-carboxamide] was run?
Its IC50 is at least 1000 nM.

`Cc1ncc(NC(=O)[C@@H]2O[C@@](C)(C(F)(F)F)[C@@H](C)[C@H]2c2ccc(F)c(F)c2OCCO)c(C)n1` [Compound 543, (2R,3S,4S,5R)-3-(3,4-difluoro-2-(2-hydroxyethoxy)phenyl)-N-(2,4-dimethylpyrimidin-5-yl)-4,5-dimethyl-5-(trifluoromethyl)tetrahydrofuran-2-carboxamide] was tested. Which IC50 did it give?
The IC50 was at least 1000 nM.

`COc1cc(NC(=O)[C@@H]2O[C@@](C)(C(F)(F)F)[C@@H](C)[C@H]2c2ccc(F)c(F)c2OCCO)ccn1` [Compound 544, (2R,3S,4S,5R)-3-(3,4-difluoro-2-(2-hydroxyethoxy)phenyl)-N-(2-methoxypyridin-4-yl)-4,5-dimethyl-5-(trifluoromethyl)tetrahydrofuran-2-carboxamide] was tested. Which IC50 did it give?
The IC50 was 10 to 100 nM.

How did the IC50 turn out when `Cc1conc1NC(=O)[C@@H]1O[C@@](C)(C(F)(F)F)[C@@H](C)[C@H]1c1ccc(F)c(F)c1OCCO` [Compound 545, (2R,3S,4S,5R)-3-(3,4-difluoro-2-(2-hydroxyethoxy)phenyl)-4,5-dimethyl-N-(4-methylisoxazol-3-yl)-5-(trifluoromethyl)tetrahydrofuran-2-carboxamide] was run?
Its IC50 is 10 to 100 nM.

`C[C@H]1[C@@H](c2ccc(F)c(F)c2OCCO)[C@H](C(=O)Nc2cc(C3CC3)n(C)n2)O[C@@]1(C)C(F)(F)F` [Compound 546, (2R,3S,4S,5R)-N-(5-cyclopropyl-1-methyl-1H-pyrazol-3-yl)-3-(3,4-difluoro-2-(2-hydroxyethoxy)phenyl)-4,5-dimethyl-5-(trifluoromethyl)tetrahydrofuran-2-carboxamide] was tested. Which IC50 did it give?
The IC50 was at least 1000 nM.

With `C[C@H]1[C@@H](c2ccc(F)c(F)c2OCCO)[C@H](C(=O)Nc2ccnn2C)O[C@@]1(C)C(F)(F)F` [Compound 547, (2R,3S,4S,5R)-3-(3,4-difluoro-2-(2-hydroxyethoxy)phenyl)-4,5-dimethyl-N-(1-methyl-1H-pyrazol-5-yl)-5-(trifluoromethyl)tetrahydrofuran-2-carboxamide] as the molecule, how does the IC50 read?
The IC50 was 100 to 1000 nM.

`C[C@H]1[C@@H](c2ccc(F)c(F)c2OCCO)[C@H](C(=O)Nc2ccc3nncn3c2)O[C@@]1(C)C(F)(F)F` [Compound 548] was tested. Which IC50 did it give?
Its IC50 is 10 to 100 nM.

How did the IC50 turn out when `C[C@H]1[C@@H](c2ccc(F)c(F)c2OCCO)[C@H](C(=O)Nc2cnn(CC#N)c2)O[C@@]1(C)C(F)(F)F` [Compound 549, (2R,3S,4S,5R)-N-(1-(cyanomethyl)-1H-pyrazol-4-yl)-3-(3,4-difluoro-2-(2-hydroxyethoxy)phenyl)-4,5-dimethyl-5-(trifluoromethyl)tetrahydrofuran-2-carboxamide] was run?
The IC50 was 100 to 1000 nM.

Reference: patent US20240368135A1 (VERTEX PHARMACEUTICALS INCORPORATED, priority 2021, published 2024)
